Read-outs that look alike come from different tables or passages of the source. Blank lines part the entries; values can stand above or below the compound they belong to.
Columns and labels:
[1] = Storage and handling stability of the halonium reagents; assay type: physicochemical
[2] = Solubility of the halonium reagents in organic solvents; assay type: physicochemical
[3] = tested on: reverse transcriptases of the Human Immunodeficiency Virus; conditions: published indications, refs 7c, 7d, cited from earlier work

stable for ([1]; ambient temperature, enclosed vial): at least 1 week | stable for ([1]; −20° C.): a year or more | solubility ([2]; acetone, methanol, ethanol, THF, reacts with these solvents): soluble | solubility ([2]; ambient temperature, CH2Cl2, 1,2-dichloroethane, chloroform, toluene): moderately to slightly soluble | solubility ([2]; ambient temperature, MeNO2, EtNO2, MeCN, DMSO, DMF, EtOAc): fully soluble | solubility ([2]; ambient temperature, benzene, hexanes, pentane): insoluble | solubility ([2]; several organic solvents): good solubility
Compound: CC[S+](Br)CC [BDSB, bromodiethylsulfonium bromopentachloroantimonate]

stable for ([1]; −20° C.): at least several months
Compound: CC[S+](Cl)CC [CDSC, Chlorodiethylsulfonium hexachloroantimonate]

Compound: CC1=CC[C@H]2C(C)(C)[C@@H](Br)CC[C@]2(C)[C@@H]1Cc1cc(O)c(CC(=O)O)cc1O [peyssonoic acid A]
inhibitor of the reverse transcriptases of the Human Immunodeficiency Virus [3]: possessed such activity

Compound: C=C1CC[C@H]2C(C)(C)[C@@H](Br)CC[C@]2(C)[C@@H]1Cc1cc(O)c(C=O)cc1O [peyssonol A]
inhibitor of the reverse transcriptases of the Human Immunodeficiency Virus [3]: allosteric inhibitor of the reverse transcriptases | inhibitor of the reverse transcriptases of the Human Immunodeficiency Virus ([3]; listed as peysonnol A): possessed such activity
